The values that follow come from patent US20100285087A1, “SINGLE PHENOTHIAZINE ENANTIOMERS AS AGENTS FOR THE PREVENTION OF BONE LOSS” (The University Of Texas, priority 2003, published 2010).

Usually pIC50 stands for the negative decadic logarithm of the IC50, by convention in mol/L. As usually defined, the inhibition is the share of the control response that was lost under treatment.

Structures are written as SMILES. pIC50: −log10 of the molar value. Read-outs that look alike come from different tables or passages of the source.

Data set [1] addresses T1, H1 receptor (Homo sapiens, UniProt P35367).
T1 construct: endogenous in cells; host or cells: HUVEC
Put plainly: Histamine-stimulated IL-6 production in HUVEC cells (RT-PCR). The format is cell-based. The following applies: for Anti-histamine activity (IL-6 production assay), in words: 10^−5 M; for Histamine-stimulated IL-6 production reduced to fraction of that observed with histamine stimulation: ethopropazine concentration 10^−4 M. The procedure:
In the present studies, HUVEC cells were plated and grown to confluence in 6-well plates. […] The total RNA was isolated using Tri-reagent and subjected to reverse transcription polymerase chain reaction (RT-PCR™) analysis of IL-6 production using semi-quantitative analysis against HPRT expression (control gene).

For data set [2] the following is noted: post-menopausal women, 50 mg/day promethazine associated with estrogens; cited from earlier work.
For data set [3], the system named is ovariectomized rats (OVX). Conditions: OVX + PROM rats, cited from earlier work.
Data set [4] concerns osteoclasts. Put plainly: CalciFluor assay (OsteoAssay): calcium released by osteoclast-mediated resorptive activity. The format is cell-based. The text has this: A CalciFluor assay is used to measure the calcium that is released as a result of osteoclast-mediated resorptive activity. The first run of this assay looked at three new inventive compounds as well as establishing the data on the internal controls, (+/−)-promethazine and Alendronate (bis-phosphonate). The preliminary data on standards and inventive analogs is provided in Table 3, some general SAR (structure-activity relationships) trends are apparent.
The assay is optimized and dose-response data is generated on the Alendronate and Promethazine controls.

In data set [5] the test system is osteoclasts. Put plainly: Osteoclast resorption assay on mammoth tusk slices. In kind it is cell-based. As to the method:
During this time, osteoclasts mature and degrade bone matrix. At the end of the incubation period, cells are removed, the specimen examined by SEM and the absorption area/slice is quantitated versus control (untreated) slices.

Data set [6] can be described thus: Cytotoxicity testing of promethazine enantiomers. The format is cell-based.
Data set [7] has as its system osteoclasts. The following applies: peak of resorption (4 days), n = 8; cited from earlier work.
[8] abbreviates: first run, preliminary data, read-out: OsteoAssay IC50.

T1 sequence (P35367 whole entry): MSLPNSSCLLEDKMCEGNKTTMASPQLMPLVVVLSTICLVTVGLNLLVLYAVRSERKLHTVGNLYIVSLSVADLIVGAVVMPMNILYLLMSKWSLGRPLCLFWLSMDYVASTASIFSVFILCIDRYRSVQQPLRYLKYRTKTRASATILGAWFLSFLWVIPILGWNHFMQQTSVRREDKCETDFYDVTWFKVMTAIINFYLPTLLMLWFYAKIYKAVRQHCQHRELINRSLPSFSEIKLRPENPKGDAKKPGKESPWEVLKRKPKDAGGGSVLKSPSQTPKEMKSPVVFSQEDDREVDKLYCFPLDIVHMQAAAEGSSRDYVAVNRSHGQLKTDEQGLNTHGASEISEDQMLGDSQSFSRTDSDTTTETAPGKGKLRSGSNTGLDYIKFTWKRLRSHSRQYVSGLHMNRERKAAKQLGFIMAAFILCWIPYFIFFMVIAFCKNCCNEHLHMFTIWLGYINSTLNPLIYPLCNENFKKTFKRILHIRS

Consider `CCN(CC)C(C)CN1c2ccccc2Sc2ccccc21` (racemic) [Ethopropazine racemate, ethopropazine], for which, in data set [1], the “Anti-histamine activity (IL-6 production assay), in words” value (from here on “Anti-histamine activity”) is “so effective that resolution of the more active enantiomer could not be determined” and the “Histamine-stimulated IL-6 production reduced to fraction of that observed with histamine stimulation” value is reported as “approximately one fifth”.

Take `CC(CN1c2ccccc2Sc2ccccc21)N(C)C` (racemic) [Promethazine racemate, promethazine]: the “Annual gain in spinal bone mass” value in data set [2] was 3%. For the same compound, in data set [3] (5th lumbar vertebra), the Vertebra mg is listed as 253 ± 24 mg and the Vertebra mm is 6.3 ± 0.3 mm. Besides, in data set [3], the “Cn-BV-TV (femur cancellous bone volume)” value was 12.5 ± 5.6%, the “F-BMC (femur bone mineral content)” value is given as 336 ± 30 mg, the F-BMC/BW is given as 1.06 ± 0.06 mg/g and the “F-BMD (femur bone mineral density)” value is recorded as 125 ± 14 mg/cm^2. Moreover, in data set [3], the Femur mg was 716 ± 38 mg, the Femur mm is listed as 34.5 ± 0.7 mm, the “Tb-N (trabecular number)” value was 2.1 ± 0.7 mm^−1 and the “Tb-Sp (trabecular separation)” value was 477 ± 215 μm. Besides, in data set [3], the “Tb-Th (trabecular thickness)” value is recorded as 57.5 ± 7.3 μm, the “V-BMC (5th lumbar vertebral bone mineral content)” value is reported as 100 ± 10 mg, the “V-BMD (5th lumbar vertebral bone mineral density)” value is recorded as 108 ± 6 mg/cm^2 and the “Z score F-BMC” value is listed as −1.7 ± 0.9.

As to `CC(CN(C)C)CN1c2ccccc2Sc2ccccc21` (racemic) [trimeprazine racemate, trimeprazine], in data set [1], the “Anti-histamine activity” value was “so effective that resolution of the more active enantiomer could not be determined”.

`CCN(CC)C(C)CN1c2ccccc2Sc2ccccc21.Cl` (single isomer, unassigned) [ethopropazine (+) enantiomer]: in data set [1], the “Anti-histamine activity” value was “so effective that resolution of the more active enantiomer could not be determined” and the “Histamine-stimulated IL-6 production reduced to fraction of that observed with histamine stimulation” value is listed as “approximately two fifths”.

In the case of `CCN(CC)C(C)CN1c2ccccc2Sc2ccccc21.Cl` (single isomer, unassigned) [ethopropazine (−) enantiomer], in data set [1] (ethopropazine), the “Effectiveness relative to the (+) enantiomer (IL-6 reduction)” value is “four times” and the “Effectiveness relative to the racemate (IL-6 reduction)” value is “approximately twice”. Also, the “Histamine-stimulated IL-6 production reduced to fraction of that observed with histamine stimulation” value in data set [1] is reported as “one tenth”.

Regarding `CC(CN(C)C)CN1c2ccccc2Sc2ccccc21` (single isomer, unassigned) [trimeprazine (+) enantiomer], the “Anti-histamine activity” value in data set [1] is reported as “so effective that resolution of the more active enantiomer could not be determined”.

Consider `C[C@H](CN1c2ccccc2Sc2ccccc21)N(C)C` [(+)-PMZ, (R)-N,N-dimethyl-1-(10H-phenothiazin-10-yl)propan-2-amine], for which the pIC50 in data set [4] (setting [8]) was more than 6.00. In data set [5], the “Concentration needed for 90% inhibition of bone resorption compared with the racemate” value is “two orders of magnitude lower”; the “Efficacy for osteoclast inhibition compared with the racemate and the (−) enantiomer” value is on record as “threefold higher”. Moreover, the inhibition at 0.1 µM in data set [5] (Osteoclast, 336 h, 10^−7 M, 14 days, read-out: Inhibition of bone resorption) came out at 90%. Besides, in data set [6], the “Cytotoxicity compared to the racemic mixture” value is listed as “did not have any significant increase in cytotoxicity”.

For `C[C@H](CN1c2ccccc2Sc2ccc(C(F)(F)F)cc21)N(C)C` [(R)-N,N-dimethyl-1-(2-(trifluoromethyl)-10H-phenothiazin-10-yl)propan-2-amine], the pIC50 in data set [4] (setting [8]) is less than 5.00.

Take `C[C@H](CN1c2ccccc2Sc2ccc(Cl)cc21)N(C)C` [(R)-l-(2-chloro-10H-phenothiazin-10-yl)-N,N-dimethylpropan-2-amine]: the negative logarithm of the IC50 (pIC50) in data set [4] (setting [8]) is less than 5.00.

For the compound `COc1ccc2c(c1)N(C[C@@H](C)N(C)C)c1ccccc1S2` [(R)-l-(2-methoxy-10H-phenothiazin-10-yl)-N,N-dimethylpropan-2-amine], the pIC50 in data set [4] (setting [8]) was more than 6.00.

Regarding `NCCCC(O)(P(=O)(O)O)P(=O)(O)O` [Alendronate, alendronate], the negative logarithm of the IC50 (pIC50) in data set [4] (optimized assay, dose response, FIG. 13, read-out: IC50, calcium release by osteoclast-mediated resorption) is approximately 5.00.

For the compound `CN/C(=N/CCSCc1nc[nH]c1C)NC#N` [Cimetidine, cimetidine], in data set [7], the “Active Osteoclasts (on-bone cells)” value is recorded as 6.2 ± 0.8; the “Inactive Osteoclasts (off-bone cells)” value is recorded as 3.1 ± 0.7; the “OBIT (OBI, mean interface of the active cells with the bone surface)” value was 24.7 ± .9; the RS is given as 14.4 ± 2.0. Also, the “Total Osteoclasts” value in data set [7] is recorded as 9.4 ± 1.4.

Regarding `COc1ccc(CN(CCN(C)C)c2ccccn2)cc1` [Mepyramine, mepyramine], in data set [7], the “Active Osteoclasts (on-bone cells)” value is 9.6 ± 0.7; the “Inactive Osteoclasts (off-bone cells)” value is recorded as 5.7 ± 0.8; the “OBIT (OBI, mean interface of the active cells with the bone surface)” value is given as 18.4 ± 0.8; the RS is reported as 17.6 ± 1.3. Moreover, in data set [7], the “Total Osteoclasts” value is on record as 15.3 ± 1.5.

As to `C[C@@H](CN1c2ccccc2Sc2ccccc21)N(C)C` [promethazine (−) enantiomer, (S)-N,N-dimethyl-1-(10H-phenothiazin-10-yl)propan-2-amine], in data set [6], the “Cytotoxicity compared to the racemic mixture” value was “the same was also true”.
